ChEMBL document CHEMBL4828767, “Identification of Clinical Candidate M2698, a Dual p70S6K and Akt Inhibitor, for Treatment of PAM Pathway-Altered Cancers” (J Med Chem, 2021)
pIC50: −log10 of the molar value.

Legend:
cells = type: cell-based; details: Homo sapiens, MDA-MB-468
[1] = target: RAC-alpha serine/threonine-protein kinase (Homo sapiens, UniProt P31749)
[2] = target: Ribosomal protein S6 kinase beta-1 (Homo sapiens, UniProt P23443, T412E); type: cell-based, Sf21
[3] = target: Aurora kinase B/Inner centromere protein (Homo sapiens, UniProt Q96GD4); test: biochemical; type: cell-based, Sf21
in vitro [4] = details: rat, plasma
Description: Protein binding in rat plasma assessed as unbound fraction

in vivo [5] = details: cynomolgus monkey
Description: Half life in cynomolgus monkey

[6] = human, microsomes
Description: Intrinsic clearance in human microsomes

in vivo [7] = details: rat
in vivo [8] = details: mouse
Description: Volume of distribution at steady state in mouse

in vivo [9] = details: cynomolgus monkey; remark: listed apart in the source
Description: Volume of distribution at steady state in cynomolgus monkey

in vitro [10] = details: human, Caco-2
in vivo [11] = details: rat, po
Description: Oral bioavailability in rat

in vitro [12] = details: mouse, plasma
Description: Protein binding in mouse plasma assessed as unbound fraction

in vivo [13] = details: rat; remark: listed apart in the source
Description: Volume of distribution at steady state in rat

[14] = rat, microsomes
Description: Intrinsic clearance in rat microsomes

in vitro [15] = details: human, Caco-2; remark: listed apart in the source
in vivo [16] = details: rat; remark: listed apart in the source
physchem = details: octanol/water
Description: Lipophilicity, logP of compound

in vivo [17] = details: dog
in vitro [18] = details: human, plasma
Description: Protein binding in human plasma assessed as unbound fraction

in vivo [19] = details: cynomolgus monkey, po
Description: Oral bioavailability in cynomolgus monkey

in vivo [20] = details: cynomolgus monkey; remark: listed apart in the source
Description: Clearance in cynomolgus monkey

in vivo [21] = details: dog; remark: listed apart in the source
Description: Volume of distribution at steady state in dog

in vivo [22] = details: dog; remark: listed apart in the source
in vivo [23] = details: mouse; remark: listed apart in the source
in vivo [24] = details: dog, po
Description: Oral bioavailability in dog

in vivo [25] = details: mouse, po
Description: Oral bioavailability in mouse

in vivo [26] = details: mouse; remark: listed apart in the source
[27] = mouse, microsomes
Description: Intrinsic clearance in mouse microsomes

hERG (KCNH2) = hERG (KCNH2) (Homo sapiens, UniProt Q12809); test: in vitro
Description: Inhibition of human ERG at 10 uM relative to control

Cytochrome P450 2C9 = Cytochrome P450 2C9 (Homo sapiens, UniProt P11712)
Description: Inhibition of CYP2C9 (unknown origin)

[28] = buffer, pH 7.4
Description: Thermodynamic solubility of compound at pH 7.4

MDA-MB-468 = test: cells; type: functional, cell-based; details: Homo sapiens, MDA-MB-468, 96 h
Description: Antiproliferative activity against human MDA-MB-468 cells incubated for 96 hrs by luminescence method

Sequence of Aurora kinase B/Inner centromere protein (Q96GD4 whole entry): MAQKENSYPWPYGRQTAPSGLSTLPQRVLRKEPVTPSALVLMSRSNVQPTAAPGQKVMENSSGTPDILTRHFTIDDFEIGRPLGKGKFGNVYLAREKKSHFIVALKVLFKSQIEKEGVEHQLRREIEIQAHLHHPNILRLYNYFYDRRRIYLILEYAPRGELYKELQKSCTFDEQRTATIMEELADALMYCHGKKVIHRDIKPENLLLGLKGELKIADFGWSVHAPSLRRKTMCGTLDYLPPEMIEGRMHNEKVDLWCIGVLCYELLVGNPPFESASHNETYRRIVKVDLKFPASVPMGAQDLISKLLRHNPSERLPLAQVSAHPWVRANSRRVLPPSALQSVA
Sequence of Aurora kinase B/Inner centromere protein (Q9NQS7 whole entry, further chain): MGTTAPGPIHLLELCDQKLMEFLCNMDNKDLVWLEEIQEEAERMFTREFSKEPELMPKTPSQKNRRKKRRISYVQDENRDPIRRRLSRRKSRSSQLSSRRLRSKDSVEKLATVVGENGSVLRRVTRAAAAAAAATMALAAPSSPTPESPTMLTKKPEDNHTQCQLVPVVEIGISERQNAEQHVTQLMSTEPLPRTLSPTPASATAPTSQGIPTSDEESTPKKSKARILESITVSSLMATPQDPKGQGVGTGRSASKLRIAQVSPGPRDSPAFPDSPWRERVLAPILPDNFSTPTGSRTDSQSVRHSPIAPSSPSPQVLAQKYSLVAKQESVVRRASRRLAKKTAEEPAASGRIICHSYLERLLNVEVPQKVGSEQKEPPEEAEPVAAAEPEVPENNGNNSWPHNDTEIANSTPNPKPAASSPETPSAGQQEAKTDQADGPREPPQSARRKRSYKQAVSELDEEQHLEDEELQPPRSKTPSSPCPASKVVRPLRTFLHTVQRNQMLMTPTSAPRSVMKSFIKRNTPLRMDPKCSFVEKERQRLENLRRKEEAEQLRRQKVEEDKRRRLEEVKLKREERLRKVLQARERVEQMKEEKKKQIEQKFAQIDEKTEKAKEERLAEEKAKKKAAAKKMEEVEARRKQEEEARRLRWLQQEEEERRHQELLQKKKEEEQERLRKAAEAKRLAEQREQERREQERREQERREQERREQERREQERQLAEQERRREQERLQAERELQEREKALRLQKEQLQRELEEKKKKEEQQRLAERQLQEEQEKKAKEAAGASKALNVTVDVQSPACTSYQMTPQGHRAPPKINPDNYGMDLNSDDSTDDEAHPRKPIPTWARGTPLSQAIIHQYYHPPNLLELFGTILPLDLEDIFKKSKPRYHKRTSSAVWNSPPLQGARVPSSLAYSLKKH
Sequence of Ribosomal protein S6 kinase beta-1 (P23443 whole entry T412E): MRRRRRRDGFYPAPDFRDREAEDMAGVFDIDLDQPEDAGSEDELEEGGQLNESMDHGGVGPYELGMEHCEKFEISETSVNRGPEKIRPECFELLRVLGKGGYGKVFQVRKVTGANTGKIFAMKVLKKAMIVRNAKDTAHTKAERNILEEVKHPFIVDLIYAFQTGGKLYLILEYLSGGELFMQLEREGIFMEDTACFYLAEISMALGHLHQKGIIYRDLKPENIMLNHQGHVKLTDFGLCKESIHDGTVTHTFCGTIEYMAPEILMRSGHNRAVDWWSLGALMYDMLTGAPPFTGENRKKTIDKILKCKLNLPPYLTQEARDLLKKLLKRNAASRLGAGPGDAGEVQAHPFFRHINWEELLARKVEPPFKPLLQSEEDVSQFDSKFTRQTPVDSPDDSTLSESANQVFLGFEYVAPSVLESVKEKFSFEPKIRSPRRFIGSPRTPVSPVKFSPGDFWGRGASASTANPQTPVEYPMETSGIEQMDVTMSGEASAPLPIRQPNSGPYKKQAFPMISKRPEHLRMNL
Sequence of RAC-alpha serine/threonine-protein kinase (P31749 whole entry): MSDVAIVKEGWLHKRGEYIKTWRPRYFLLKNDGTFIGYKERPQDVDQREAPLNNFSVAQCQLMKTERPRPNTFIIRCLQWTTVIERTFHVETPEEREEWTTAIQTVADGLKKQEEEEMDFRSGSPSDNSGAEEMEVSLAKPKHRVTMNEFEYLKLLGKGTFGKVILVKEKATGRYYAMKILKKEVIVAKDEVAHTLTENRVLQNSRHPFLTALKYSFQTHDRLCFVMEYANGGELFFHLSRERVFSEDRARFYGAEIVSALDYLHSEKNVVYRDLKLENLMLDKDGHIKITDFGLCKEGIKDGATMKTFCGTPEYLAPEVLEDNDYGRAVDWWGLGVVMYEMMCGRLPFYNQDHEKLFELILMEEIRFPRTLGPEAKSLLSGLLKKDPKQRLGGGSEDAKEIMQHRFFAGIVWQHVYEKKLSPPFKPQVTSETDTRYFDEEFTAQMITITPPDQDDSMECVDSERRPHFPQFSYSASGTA
Sequence of hERG (KCNH2) (Q12809 whole entry): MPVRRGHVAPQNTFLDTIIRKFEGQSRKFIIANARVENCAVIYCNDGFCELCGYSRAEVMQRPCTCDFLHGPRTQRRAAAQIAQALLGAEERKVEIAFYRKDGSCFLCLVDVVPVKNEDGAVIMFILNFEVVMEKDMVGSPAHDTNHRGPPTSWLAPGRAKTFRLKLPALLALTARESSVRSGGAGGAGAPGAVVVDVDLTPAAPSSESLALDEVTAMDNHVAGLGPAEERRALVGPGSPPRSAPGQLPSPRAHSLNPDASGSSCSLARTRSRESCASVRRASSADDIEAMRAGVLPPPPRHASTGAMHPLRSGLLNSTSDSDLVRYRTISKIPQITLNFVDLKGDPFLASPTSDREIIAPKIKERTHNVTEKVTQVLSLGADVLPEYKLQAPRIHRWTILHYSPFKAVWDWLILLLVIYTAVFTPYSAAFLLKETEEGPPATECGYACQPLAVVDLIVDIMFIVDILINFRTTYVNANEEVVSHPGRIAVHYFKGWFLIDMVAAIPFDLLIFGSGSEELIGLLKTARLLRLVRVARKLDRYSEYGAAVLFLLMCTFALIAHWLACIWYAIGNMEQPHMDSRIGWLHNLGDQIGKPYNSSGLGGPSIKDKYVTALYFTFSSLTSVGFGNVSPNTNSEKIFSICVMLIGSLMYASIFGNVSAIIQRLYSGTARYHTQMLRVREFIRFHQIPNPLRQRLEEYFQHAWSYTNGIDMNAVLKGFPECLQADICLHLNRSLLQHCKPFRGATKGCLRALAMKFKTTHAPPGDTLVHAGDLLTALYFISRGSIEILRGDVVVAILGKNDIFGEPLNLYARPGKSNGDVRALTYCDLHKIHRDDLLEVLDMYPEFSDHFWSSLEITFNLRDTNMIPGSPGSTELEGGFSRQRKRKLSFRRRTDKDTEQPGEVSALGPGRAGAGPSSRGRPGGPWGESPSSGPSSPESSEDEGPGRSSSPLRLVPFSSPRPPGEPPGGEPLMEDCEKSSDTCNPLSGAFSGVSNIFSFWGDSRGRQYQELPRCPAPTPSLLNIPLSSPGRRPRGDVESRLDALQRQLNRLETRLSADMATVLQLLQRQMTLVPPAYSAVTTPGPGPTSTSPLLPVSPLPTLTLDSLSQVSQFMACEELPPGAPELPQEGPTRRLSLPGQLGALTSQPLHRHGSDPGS
Sequence of Cytochrome P450 2C9 (P11712 whole entry): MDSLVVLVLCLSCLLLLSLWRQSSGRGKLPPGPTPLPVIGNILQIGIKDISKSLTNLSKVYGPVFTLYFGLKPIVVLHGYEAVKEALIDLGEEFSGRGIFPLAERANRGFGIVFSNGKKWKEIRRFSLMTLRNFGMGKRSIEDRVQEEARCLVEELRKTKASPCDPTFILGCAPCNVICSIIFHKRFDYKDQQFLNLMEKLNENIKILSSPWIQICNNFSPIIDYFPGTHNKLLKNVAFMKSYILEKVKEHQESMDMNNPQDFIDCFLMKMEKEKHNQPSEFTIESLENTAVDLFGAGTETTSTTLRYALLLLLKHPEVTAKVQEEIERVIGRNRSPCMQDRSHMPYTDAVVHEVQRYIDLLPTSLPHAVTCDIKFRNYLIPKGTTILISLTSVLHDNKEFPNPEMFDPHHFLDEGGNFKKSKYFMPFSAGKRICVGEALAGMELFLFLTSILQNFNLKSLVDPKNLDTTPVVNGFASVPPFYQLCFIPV

`NC(=O)c1cccc2c(N[C@H](CN3CCC3)c3cccc(C(F)(F)F)c3)ncnc12` showed a pIC50 (cells) of 7.25 and a pIC50 [1] of 8.22.

Work on `NC(=O)c1cccc2c(N[C@H](CN3CCC3)c3ccccc3)ncnc12` yielded a pIC50 (cells) of 8.80 and a pIC50 [2] of 8.21.

With `NC(=O)c1cccc2c(N[C@H](CN3CCCC3)c3ccccc3)ncnc12` the pIC50 (cells) was 8.04.

`CNC[C@@H](Nc1nc(C)nc2c(C(N)=O)cccc12)c1cccc(F)c1` gave a pIC50 (cells) of 7.14, a pIC50 [1] of 7.36 and a pIC50 [2] of 8.70. The pIC50 [3] was 8.22.

`NC(=O)c1cccc2c(N[C@H](CN3CCC3)c3cccc(Cl)c3)ncnc12` showed a pIC50 (cells) of 7.60, a pIC50 [1] of 7.85 and a pIC50 [2] of 8.89.

Compound `NC(=O)c1cccc2c(N[C@H](CN3CCCC3)c3cccc(F)c3)ncnc12` has a pIC50 (cells) of under 6.00, a pIC50 [1] of 6.25 and a pIC50 [2] of 7.19. For the same compound, the pIC50 [3] was 7.35.

Work on `NC(=O)c1cccc2c(NCc3ccc4c(c3)OCO4)ncnc12` yielded a pIC50 [1] of under 5.00.

For `NC(=O)c1cccc2c(N[C@H](CN3CCC3)c3cccc(F)c3)ncnc12`, the pIC50 (cells) was 7.12 and the pIC50 [2] was 8.62.

Work on `NC(=O)c1cccc2c(N[C@H](CN3CCC3)c3ccc(Cl)c(C(F)(F)F)c3)ncnc12` [RUPITASERTIB] yielded a fraction unbound (in vitro [4]) of 0.05, a half-life (in vivo [5]) of 606 min and a CL [6] of 31 mL/min. It also gave a half-life (in vivo [7]) of 234 min, a Vd (in vivo [8]) of 9.88 L/kg and a Vd (in vivo [9]) of 14.3 L/kg. The Papp A→B (in vitro [10]) was 12.1 ×10⁻⁶ cm/s, the pIC50 (cells) was 7.96 and the bioavailability (in vivo [11]) was 15%. It also gave a fraction unbound (in vitro [12]) of 0.03, a Vd (in vivo [13]) of 17.6 L/kg and a CL [14] of 37 mL/min. It also gave an efflux ratio (in vitro [15]) of 1.5, a clearance (in vivo [16]) of 51.7 mL/min/kg and a logP (physchem) of 2.4. It also gave a half-life (in vivo [17]) of 246 min, a fraction unbound (in vitro [18]) of 0.05 and a bioavailability (in vivo [19]) of 44%. For the same compound, the clearance (in vivo [20]) was 15 mL/min/kg, the Vd (in vivo [21]) was 7.43 L/kg and the clearance (in vivo [22]) was 20 mL/min/kg. For the same compound, the half-life (in vivo [23]) was 258 min, the bioavailability (in vivo [24]) was 36% and the pIC50 [1] was 8.40. The bioavailability (in vivo [25]) was 43%, the clearance (in vivo [26]) was 25 mL/min/kg and the pIC50 [2] was 8.96. It also gave a pIC50 [3] of 6.77 and a CL [27] of 30 mL/min.

`NC(=O)c1cccc2c(N[C@H](CN3CCC3)c3ccc(C(F)(F)F)cc3)ncnc12` showed a pIC50 (cells) of 7.55 and a pIC50 [2] of 9.00.

`COC(=O)c1cccc2c(NCc3ccc4c(c3)OCO4)ncnc12` gave a pIC50 [2] of under 5.00.

In the case of `CCc1nc(N[C@H](CNC)c2cccc(F)c2)c2cccc(C(N)=O)c2n1`, the pIC50 (cells) was 6.74, the pIC50 [1] was 6.67 and the pIC50 [2] was 8.70. For the same compound, the pIC50 [3] was 7.29.

Compound `CNC[C@@H](Nc1ncnc2c(C(N)=O)cccc12)c1cccc(F)c1` has a fraction unbound (in vitro [4]) of 0.23, a CL [6] of 21 mL/min and a Papp A→B (in vitro [10]) of 16 ×10⁻⁶ cm/s. It also gave a pIC50 (cells) of 7.35, a fraction unbound (in vitro [12]) of 0.22 and a CL [14] of 29 mL/min. It also gave an inhibition at 10 µM (hERG (KCNH2)) of 26%, a fraction unbound (in vitro [18]) of 0.15 and a pIC50 (Cytochrome P450 2C9) of 5.44. It also gave a Therm_solubility [28] of 64 mg/mL, a half-life (in vivo [23]) of 126 min and a pIC50 [1] of 8.40. The bioavailability (in vivo [25]) was 33%, the clearance (in vivo [26]) was 29 mL/min/kg and the pIC50 (MDA-MB-468) was 6.71. For the same compound, the pIC50 [3] was 8.40 and the CL [27] was 11 mL/min.

Compound `NC(=O)c1cccc2c(NCc3ccc4c(c3)OCO4)nccc12` has a pIC50 [1] of under 5.00 and a pIC50 [2] of under 5.00.

`O=C(O)c1cccc2c(NCc3ccc4c(c3)OCO4)ncnc12` gave a pIC50 [2] of under 5.00.

`CNC[C@H](Nc1ncnc2c(C(N)=O)cccc12)c1cccc(F)c1` gave a pIC50 (cells) of 6.15.

Compound `NC(=O)c1cccc2c(N[C@H](CN3CCC3)c3ccc(F)c(C(F)(F)F)c3)ncnc12` has a pIC50 (cells) of 7.37, a pIC50 [1] of 8.22 and a pIC50 [2] of 8.54. The pIC50 [3] was 6.63.

For `NC(=O)c1cccc2c(NCc3ccc4c(c3)OCO4)ccnc12`, the pIC50 [1] was under 5.00.

For `NC(=O)c1cccc2c(N[C@H](CN3CCC3)c3ccc(Cl)c(F)c3)ncnc12`, the pIC50 (cells) was 7.37, the pIC50 [1] was 8.00 and the pIC50 [2] was 8.70. The pIC50 [3] was 7.12.

With `CNC[C@@H](Nc1nc(C(F)(F)F)nc2c(C(N)=O)cccc12)c1cccc(F)c1` the pIC50 [1] was 6.40, the pIC50 [2] was 7.52 and the pIC50 [3] was under 6.00.

Work on `NC(=O)c1cccc2c(N[C@H](CN3CCC3)c3ccc(F)cc3)ncnc12` yielded a pIC50 (cells) of 6.99 and a pIC50 [2] of 8.10.

Compound `CNCCC(Nc1ncnc2c(C(N)=O)cccc12)c1ccccc1` (stereo unspecified) has a pIC50 [2] of 6.80.

For `CN(Cc1ccccc1)c1ncnc2c(C(N)=O)cccc12`, the pIC50 [2] was 6.01.

`c1ccc(CNc2ncnc3ccccc23)cc1` gave a pIC50 [2] of under 5.00.

Compound `NC(=O)c1cccc2c(N[C@H](CN3CCC3)c3ccc(F)c(F)c3)ncnc12` has a pIC50 (cells) of 7.13, a pIC50 [1] of 8.40 and a pIC50 [2] of 9.00.

`CNC(=O)c1cccc2c(NCc3ccc4c(c3)OCO4)ncnc12` showed a pIC50 [2] of under 5.00.

For `CNCC(Nc1ncnc2c(C(N)=O)cccc12)c1cccc(F)c1` (racemic), the pIC50 (cells) was 7.60, the pIC50 [1] was 7.82 and the pIC50 [3] was 8.05.

For `CN(C)C(=O)c1cccc2c(NCc3ccc4c(c3)OCO4)ncnc12`, the pIC50 [2] was under 5.00.
